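In this assay, cells in 96-well plates receive the compound at five concentrations for 48 hours. Endpoints are linearly interpolated between the surrounding concentrations. GI50 = concentration required for 50% inhibition of growth. TGI: concentration producing complete growth inhibition.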
Legend:
Test in all cases: NCI-60 cell line screen, 48 h
EKVX NSCLC = system: EKVX NSCLC
HOP-62 NSCLC = system: HOP-62 NSCLC
KM12 colon = system: KM12 colon
M14 melanoma = system: M14 melanoma
MDA-MB-435 = system: MDA-MB-435
MDA-N = system: MDA-N
NCI-H460 lung = system: NCI-H460 lung
OVCAR-8 ovarian = system: OVCAR-8 ovarian
TK-10 renal = system: TK-10 renal
T-47D breast = system: T-47D breast

Structure (SMILES) | TGI (EKVX NSCLC) [µM] | TGI (HOP-62 NSCLC) [µM] | TGI (KM12 colon) [µM] | TGI (M14 melanoma) [µM] | TGI (MDA-MB-435) [µM] | TGI (MDA-N) [µM] | TGI (NCI-H460 lung) [µM] | TGI (OVCAR-8 ovarian) [µM] | TGI (TK-10 renal) [µM] | TGI (T-47D breast) [µM] | GI50 (EKVX NSCLC) [µM] | GI50 (HOP-62 NSCLC) [µM] | GI50 (KM12 colon) [µM] | GI50 (M14 melanoma) [µM] | GI50 (MDA-MB-435) [µM] | GI50 (NCI-H460 lung) [µM] | GI50 (OVCAR-8 ovarian) [µM] | GI50 (T-47D breast) [µM] | GI50 (TK-10 renal) [µM]
CC/C(Cl)=N\OC(=O)Nc1ccc(F)c([N+](=O)[O-])c1 | 35.6 | 35 | 34.2 | > 53.6 | 33.5 | 39.6 | > 100 | 32.8 | 26.1 |  |  |  |  |  |  |  |  |  | 
CCOC(=O)C1(C(=O)OCC)CCCN1C(=O)[C@H](CNC(=O)OC(C)(C)C)NC(=O)OCc1ccccc1 | > 100 | > 100 | > 100 | > 100 | > 100 | > 100 | > 100 |  | > 100 | > 100 |  |  |  |  |  |  |  |  | 
O=C1c2cccc(NCCNCCO)c2C(=O)c2cccc(NCCNCCO)c21 | 4.84 | 4.14 | 4.48 | 3.57 |  | 1.55 | 7.43 | 5.97 | 23.2 | 4.26 |  |  |  |  |  |  |  |  | 
O=[N+]([O-])c1ccc(C2=Nc3ccccc3SC(c3ccccc3)C2)cc1 (stereo not drawn) | 44.3 | 58.5 | 32.2 | 36.3 |  |  | 43.9 | 40.3 | > 100 |  |  |  |  |  |  |  |  |  | 
CN1COCc2cc3cc4c(cc3nc21)OCCO4 | > 100 | > 100 | > 100 | > 100 | > 100 | > 100 | > 100 | > 100 | > 100 |  |  |  |  |  |  |  |  |  | 
COc1cc(CC(C)N)ccc1O (stereo not drawn) | > 100 | > 100 | > 100 | > 100 |  | > 100 | > 100 | > 100 | > 100 | > 100 |  |  |  |  |  |  |  |  | 
O=C(Nc1ccc(-n2cc(-c3ccncc3)c(-c3ccc(O)c(Cl)c3)n2)cc1)Nc1cccc(Cl)c1Cl | > 32.5 | > 32.5 | > 32.5 | > 32.5 | > 32.5 |  | > 32.5 | > 32.5 | 22.1 | > 32.5 | 9.99 | 10.6 | 5.95 | 3.16 | 4.5 | 5.74 | 6.86 | 8.62 | 6.52
COc1ccc(/C=N/N2C(=O)c3c(N)c(C#N)c(-c4ccccc4)c(-c4ccccc4)c3C2=O)cc1 | > 100 |  | > 100 | > 100 | > 100 | > 100 | > 100 | > 100 | > 100 | > 100 |  |  |  |  |  |  |  |  | 
COc1cc2c(c(O)c1O)-c1ccc(OC)c(=O)cc1C(NC(C)=O)CC2 (stereo not drawn) | > 100 | > 100 | 25.7 | > 100 |  |  | 87.7 | > 100 | > 100 |  |  |  |  |  |  |  |  |  | 
O=C(O)c1c2c(cc3c1CC1(Cc4ccccc4C1=O)C3)CCC2 (stereo not drawn) | > 100 | > 100 | > 100 | 70.7 | 16 |  | > 100 | > 100 | > 100 | > 90.7 |  |  |  |  |  |  |  |  | 
O=C(CNCc1ccccc1)Oc1c(Cl)c(Cl)c(Cl)c(Cl)c1Cl | 48.7 | > 100 | 51.1 | > 100 | > 100 |  | > 100 | 48.8 | > 100 | 67.9 |  |  |  |  |  |  |  |  | 
O=C1CCc2ccc3c(c21)CC1(Cc2ccccc2C1)C3 |  | > 100 | 46 | > 100 | > 100 | > 100 | 20.6 | > 100 | 99.3 | 59.2 |  |  |  |  |  |  |  |  | 
NC(=O)c1ncn2c1NC(=O)CC2 | > 100 | > 100 | > 100 |  |  |  | > 100 | > 100 |  |  |  |  |  |  |  |  |  |  | 
CSC(SC)=C1C(=O)N(c2ccccc2)N=C1C | 54.6 | > 100 | > 100 | 60.8 |  | > 100 | 82.4 | > 100 | > 100 |  |  |  |  |  |  |  |  |  | 
COc1ccc2c(c1)CCN=C2c1ccccc1CCCCl | > 100 | > 100 | > 100 | > 100 | > 100 |  | 28.5 | > 100 | > 100 | > 100 |  |  |  |  |  |  |  |  | 
CCOC(=O)C(C)c1nc2c(Cl)c3ncccc3cc2[nH]c1=O (stereo not drawn) | > 100 | > 100 | > 100 | > 100 | > 100 | > 100 |  | > 100 | > 100 | > 100 |  |  |  |  |  |  |  |  | 
Cc1ccc(-c2c(C#N)c(-c3ccc([N+](=O)[O-])cc3)c(C#N)c(=O)n2NS(=O)(=O)c2ccccc2)cc1 | > 100 | > 100 | > 100 | > 100 | > 100 | > 100 | > 100 | > 100 | > 100 |  |  |  |  |  |  |  |  |  | 

From PubChem BioAssay (NCI)
